Laboratory results published in ChEMBL document CHEMBL4828717, “Synthetic cajaninstilbene acid derivatives eradicate methicillin-resistant Staphylococcus aureus persisters and biofilms” (Eur J Med Chem, 2021).

Tests used:
Enterococcus faecalis = assay: Antibacterial activity against Enterococcus faecalis ATCC29212 assessed as reduction in microbial growth after 16 to 18 hrs by microbroth dilution method; format: functional; conditions: ATCC 29212, time 16-18 hrs
Staphylococcus aureus [1] = assay: Antibacterial activity against methicillin resistant Staphylococcus aureus ATCC48706 assessed as reduction in microbial growth after 16 to 18 hrs by microbroth dilution method; format: functional; conditions: time 16-18 hrs
Staphylococcus aureus [2] = assay: Antibacterial activity against methicillin resistant Staphylococcus aureus ATCC48073 assessed as reduction in microbial growth after 16 to 18 hrs by microbroth dilution method; format: functional; conditions: time 16-18 hrs
Staphylococcus aureus [3] = assay: Antibacterial activity against methicillin resistant Staphylococcus aureus ATCC 52056 assessed as reduction in microbial growth after 16 to 18 hrs by microbroth dilution method; format: functional; conditions: time 16-18 hrs
Staphylococcus aureus [4] = assay: Antibacterial activity against methicillin resistant Staphylococcus aureus ATCC48966 assessed as reduction in microbial growth after 16 to 18 hrs by microbroth dilution method; format: functional; conditions: time 16-18 hrs
RAW264.7 = assay: Cytotoxicity against mouse RAW264.7 cells assessed as cell viability at 10 ug/ml measured after 24 hrs by MTT assay; format: cell-based; conditions: raw264.7, 24 h, dose 10 µg/ml
Staphylococcus aureus [5] = assay: Antibacterial activity against methicillin resistant Staphylococcus aureus ATCC513045 assessed as reduction in microbial growth after 16 to 18 hrs by microbroth dilution method; format: functional; conditions: time 16-18 hrs
Staphylococcus aureus [6] = assay: Antibacterial activity against methicillin resistant Staphylococcus aureus ATCC49008 assessed as reduction in microbial growth after 16 to 18 hrs by microbroth dilution method; format: functional; conditions: time 16-18 hrs
Staphylococcus aureus [7] = assay: Antibacterial activity against Staphylococcus aureus ATCC 25923 assessed as reduction in microbial growth after 16 to 18 hrs by microbroth dilution method; format: functional; conditions: time 16-18 hrs
Escherichia coli = assay: Antibacterial activity against Escherichia coli ATCC25922 assessed as reduction in microbial growth after 16 to 18 hrs by microbroth dilution method; format: functional; conditions: ATCC 25922, time 16-18 hrs
Staphylococcus aureus [8] = assay: Antibacterial activity against methicillin resistant Staphylococcus aureus ATCC 62202 assessed as reduction in microbial growth after 16 to 18 hrs by microbroth dilution method; format: functional; conditions: time 16-18 hrs
Staphylococcus aureus [9] = assay: Antibacterial activity against methicillin resistant Staphylococcus aureus ATCC49800 assessed as reduction in microbial growth after 16 to 18 hrs by microbroth dilution method; format: functional; conditions: time 16-18 hrs
L02 = assay: Cytotoxicity against human L02 cells assessed as cell viability at 10 ug/ml measured after 24 hrs by MTT assay; format: cell-based; conditions: l02, 24 h, dose 10 µg/ml
Pseudomonas aeruginosa = assay: Antibacterial activity against Pseudomonas aeruginosa ATCC27853 assessed as reduction in microbial growth after 16 to 18 hrs by microbroth dilution method; format: functional; conditions: time 16-18 hrs
Staphylococcus aureus [10] = assay: Antibacterial activity against methicillin resistant Staphylococcus aureus ATCC515992 assessed as reduction in microbial growth after 16 to 18 hrs by microbroth dilution method; format: functional; conditions: time 16-18 hrs
Staphylococcus aureus [11] = assay: Antibacterial activity against methicillin resistant Staphylococcus aureus ATCC 43300 assessed as reduction in microbial growth after 16 to 18 hrs by microbroth dilution method; format: functional; conditions: time 16-18 hrs
Staphylococcus aureus [12] = assay: Antibacterial activity against methicillin resistant Staphylococcus aureus ATCC49025 assessed as reduction in microbial growth after 16 to 18 hrs by microbroth dilution method; format: functional; conditions: time 16-18 hrs

CC(C)=CCc1c(OCCCCF)cc(/C=C/c2ccc(F)cc2)c(C(=O)O)c1O
MIC (Enterococcus faecalis): > 32 µg/mL
MIC (Staphylococcus aureus [1]): 4 µg/mL
MIC (Staphylococcus aureus [2]): 4 µg/mL
MIC (Staphylococcus aureus [3]): 4 µg/mL
MIC (Staphylococcus aureus [4]): 4 µg/mL
Activity (RAW264.7): Toxic
MIC (Staphylococcus aureus [5]): 4 µg/mL
MIC (Staphylococcus aureus [6]): 4 µg/mL
MIC (Staphylococcus aureus [7]): 4 µg/mL
MIC (Escherichia coli): > 32 µg/mL
MIC (Staphylococcus aureus [8]): 4 µg/mL
MIC (Staphylococcus aureus [9]): 4 µg/mL
Activity (L02): Toxic
MIC (Pseudomonas aeruginosa): > 32 µg/mL
MIC (Staphylococcus aureus [10]): 4 µg/mL
MIC (Staphylococcus aureus [11]): 4 µg/mL
MIC (Staphylococcus aureus [12]): 4 µg/mL

CCOc1cc(/C=C/c2ccc(F)cc2)c(C(=O)O)c(O)c1CC=C(C)C
MIC (Enterococcus faecalis): > 32 µg/mL
MIC (Staphylococcus aureus [1]): 4 µg/mL
MIC (Staphylococcus aureus [2]): 4 µg/mL
MIC (Staphylococcus aureus [3]): 2 µg/mL
MIC (Staphylococcus aureus [4]): 4 µg/mL
Activity (RAW264.7): Toxic
MIC (Staphylococcus aureus [5]): 4 µg/mL
MIC (Staphylococcus aureus [6]): 4 µg/mL
MIC (Staphylococcus aureus [7]): 4 µg/mL
MIC (Escherichia coli): > 32 µg/mL
MIC (Staphylococcus aureus [8]): 4 µg/mL
MIC (Staphylococcus aureus [9]): 8 µg/mL
Activity (L02): Toxic
MIC (Pseudomonas aeruginosa): > 32 µg/mL
MIC (Staphylococcus aureus [10]): 4 µg/mL
MIC (Staphylococcus aureus [11]): 2 µg/mL
MIC (Staphylococcus aureus [12]): 4 µg/mL

CC(C)=CCc1c(OCC(F)(F)F)cc(/C=C/c2ccc(F)cc2)c(C(=O)O)c1O
MIC (Enterococcus faecalis): > 32 µg/mL
MIC (Staphylococcus aureus [1]): 4 µg/mL
MIC (Staphylococcus aureus [2]): 4 µg/mL
MIC (Staphylococcus aureus [3]): 2 µg/mL
MIC (Staphylococcus aureus [4]): 4 µg/mL
Activity (RAW264.7): Toxic
MIC (Staphylococcus aureus [5]): 4 µg/mL
MIC (Staphylococcus aureus [6]): 4 µg/mL
MIC (Staphylococcus aureus [7]): 4 µg/mL
MIC (Escherichia coli): > 32 µg/mL
MIC (Staphylococcus aureus [8]): 4 µg/mL
MIC (Staphylococcus aureus [9]): 4 µg/mL
Activity (L02): Toxic
MIC (Pseudomonas aeruginosa): > 32 µg/mL
MIC (Staphylococcus aureus [10]): 4 µg/mL
MIC (Staphylococcus aureus [11]): 2 µg/mL
MIC (Staphylococcus aureus [12]): 4 µg/mL

CCC(CC)Oc1cc(/C=C/c2ccc(F)cc2)c(C(=O)O)c(O)c1CC=C(C)C
MIC (Enterococcus faecalis): > 32 µg/mL
MIC (Staphylococcus aureus [1]): 2 µg/mL
MIC (Staphylococcus aureus [2]): 4 µg/mL
MIC (Staphylococcus aureus [3]): 2 µg/mL
MIC (Staphylococcus aureus [4]): 2 µg/mL
Activity (RAW264.7): Toxic
MIC (Staphylococcus aureus [5]): 2 µg/mL
MIC (Staphylococcus aureus [6]): 2 µg/mL
MIC (Staphylococcus aureus [7]): 2 µg/mL
MIC (Escherichia coli): > 32 µg/mL
MIC (Staphylococcus aureus [8]): 2 µg/mL
MIC (Staphylococcus aureus [9]): 2 µg/mL
Activity (L02): Toxic
MIC (Pseudomonas aeruginosa): > 32 µg/mL
MIC (Staphylococcus aureus [10]): 4 µg/mL
MIC (Staphylococcus aureus [11]): 2 µg/mL
MIC (Staphylococcus aureus [12]): 2 µg/mL

CC(C)=CCc1c(OC2CCCC2)cc(/C=C/c2ccc(C(F)(F)F)cc2)c(C(=O)O)c1O
MIC (Enterococcus faecalis): > 32 µg/mL
MIC (Staphylococcus aureus [1]): 2 µg/mL
MIC (Staphylococcus aureus [2]): 2 µg/mL
MIC (Staphylococcus aureus [3]): 2 µg/mL
MIC (Staphylococcus aureus [4]): 2 µg/mL
Activity (RAW264.7): Toxic
MIC (Staphylococcus aureus [5]): 2 µg/mL
MIC (Staphylococcus aureus [6]): 2 µg/mL
MIC (Staphylococcus aureus [7]): 2 µg/mL
MIC (Escherichia coli): > 32 µg/mL
MIC (Staphylococcus aureus [8]): 2 µg/mL
MIC (Staphylococcus aureus [9]): 2 µg/mL
Activity (L02): Toxic
MIC (Pseudomonas aeruginosa): > 32 µg/mL
MIC (Staphylococcus aureus [10]): 2 µg/mL
MIC (Staphylococcus aureus [11]): 2 µg/mL
MIC (Staphylococcus aureus [12]): 2 µg/mL

CC(C)=CCc1c(OC2CCC2)cc(/C=C/c2ccc(F)cc2)c(C(=O)O)c1O
MIC (Enterococcus faecalis): > 32 µg/mL
MIC (Staphylococcus aureus [1]): 2 µg/mL
MIC (Staphylococcus aureus [2]): 2 µg/mL
MIC (Staphylococcus aureus [3]): 2 µg/mL
MIC (Staphylococcus aureus [4]): 2 µg/mL
Activity (RAW264.7): Toxic
MIC (Staphylococcus aureus [5]): 2 µg/mL
MIC (Staphylococcus aureus [6]): 2 µg/mL
MIC (Staphylococcus aureus [7]): 2 µg/mL
MIC (Escherichia coli): > 32 µg/mL
MIC (Staphylococcus aureus [8]): 4 µg/mL
MIC (Staphylococcus aureus [9]): 2 µg/mL
Activity (L02): Toxic
MIC (Pseudomonas aeruginosa): > 32 µg/mL
MIC (Staphylococcus aureus [10]): 4 µg/mL
MIC (Staphylococcus aureus [11]): 2 µg/mL
MIC (Staphylococcus aureus [12]): 2 µg/mL

CC(C)=CCc1c(OC2CCCCCC2)cc(/C=C/c2ccc(F)cc2)c(C(=O)O)c1O
MIC (Enterococcus faecalis): > 32 µg/mL
MIC (Staphylococcus aureus [1]): 2 µg/mL
MIC (Staphylococcus aureus [2]): 2 µg/mL
MIC (Staphylococcus aureus [3]): 1 µg/mL
MIC (Staphylococcus aureus [4]): 2 µg/mL
Activity (RAW264.7): Toxic
MIC (Staphylococcus aureus [5]): 2 µg/mL
MIC (Staphylococcus aureus [6]): 2 µg/mL
MIC (Staphylococcus aureus [7]): 2 µg/mL
MIC (Escherichia coli): > 32 µg/mL
MIC (Staphylococcus aureus [8]): 2 µg/mL
MIC (Staphylococcus aureus [9]): 4 µg/mL
Activity (L02): Toxic
MIC (Pseudomonas aeruginosa): > 32 µg/mL
MIC (Staphylococcus aureus [10]): 2 µg/mL
MIC (Staphylococcus aureus [11]): 1 µg/mL
MIC (Staphylococcus aureus [12]): 2 µg/mL

CC(C)=CCc1c(OCC2CC2)cc(/C=C/c2ccc(F)cc2)c(C(=O)O)c1O
MIC (Enterococcus faecalis): > 32 µg/mL
MIC (Staphylococcus aureus [1]): 2 µg/mL
MIC (Staphylococcus aureus [2]): 2 µg/mL
MIC (Staphylococcus aureus [3]): 2 µg/mL
MIC (Staphylococcus aureus [4]): 2 µg/mL
Activity (RAW264.7): Toxic
MIC (Staphylococcus aureus [5]): 2 µg/mL
MIC (Staphylococcus aureus [6]): 2 µg/mL
MIC (Staphylococcus aureus [7]): 2 µg/mL
MIC (Escherichia coli): > 32 µg/mL
MIC (Staphylococcus aureus [8]): 4 µg/mL
MIC (Staphylococcus aureus [9]): 2 µg/mL
Activity (L02): Toxic
MIC (Pseudomonas aeruginosa): > 32 µg/mL
MIC (Staphylococcus aureus [10]): 2 µg/mL
MIC (Staphylococcus aureus [11]): 2 µg/mL
MIC (Staphylococcus aureus [12]): 2 µg/mL
